Assays:
[1] = system: PI3-kinase β (p110β/p85α); test: PI3-kinase subtype activity with or without Gβ1γ2-Myc (PIP3 production, 32P-ATP, TLC); format: biochemical
Protocol: The subtypes α (PI3 Kinase (p110α/p85α), active, Upstate, Product No. 14-602), β (PI3 Kinase (p110β/p85α), active, Upstate, Product No. 14-603), γ ((PI3KγHis-GST (Phosphoinositide 3-kinase p110γHis/p101GST) human, Recombinant, Sf9 insect cell, JENA Bioscience, Product No. PR-347S), and δ (PI3 Kinase (p110δ/p85α), active, Upstate, Product No. 14-604) were used as the PI3-kinase subtypes respectively. A PI3K buffer (40 mM HEPES-Na (pH 7.4), 120 mM NaCl, 1 mM EGTA, 1 mM dithiothreitol, 1 mM β glycerophosphoric acid, 10 mM MgCl2, 0.1% BSA) was used as a buffer in the following reactions.
To the lipid micelle solution (125 μl) was added the purified Gβ1γ2-Myc solution (250 μl, 10 μg/ml) obtained in (1), and the resultant solution was stirred and left in ice for 10 minutes. 30 μl of the lipid micelle solution containing the Gβγ2-Myc was dispensed into 1.5-ml microtubes, and to these were added 5 μl of a compound solution and 5 μl of each PI3-kinase subtype (α, β, and δ: 5 μg/ml, γ: 2.5 μg/ml) successively. The mixture was left at room temperature for 10 minutes, and a 40-μM ATP solution (10 μl) containing ^32P-γ-ATP was added thereto, to initiate a reaction. The amount of the ^32P-γ-ATP added was about 300 kBq per one reaction. The reaction was carried out at room temperature for 30 minutes, and stopped by adding 80 μl of 1N HCl at ice temperature. 300 μl of a chloroform:methanol (1:1) solution was added thereto, the mixture was stirred to extract the lipid, and the organic layer was washed with 80 μl of 1N HCl twice. The solvent was removed from the residual organic layer under reduced pressure, the residue was dissolved in 20 μl of a chloroform:methanol (4:1) solution, the entire solution was spotted on a TLC plate (Merck, Kieselgel 60), and a TLC was carried out for about 4 hours using a developer of acetic acid:water:1-propanol (4:31:65). The TLC plate was treated with oxalic acid beforehand such that the plate was sufficiently developed by a 40% methanol solution containing 1% of potassium oxalate, dried overnight, and activated at 110° C. for 30 minutes. After the developing, the TLC plate was sufficiently dried and exposed using an imaging plate, and data were obtained by BAS2000 (FUJIFILM Corporation). The data were analyzed by a software of BAS2000, the analysis region was controlled such that spots of phosphatidylinositol-[3,4,5]-trisphosphate (PIP3) in the TLC lanes have the same areas, and the energy (PSL) corresponding to each radioactivity was quantified in the region.
A lipid micelle solution was prepared in the same manner as (2). […] The reaction was carried out at room temperature for 15 minutes, the resultant was treated in the same manner as (2), and the amount of the produced PIP3 was measured.

[2] = biological target: T1, PI3-kinase β in the presence of Gβ1γ2-His (Homo sapiens, UniProt P42338+P62873); test: PI3-kinase β activation assay in the presence of Gβ1γ2-His (scintillation counting); format: biochemical; settings: FIG. 17
T1 construct: purchased Upstate 14-603
Protocol: A lipid micelle solution was prepared in accordance with a method described in Example 24 (2), to this was added the Gβ1γ2-His prepared in (1) at a concentration of 13.3 μg/ml, and the mixture was left on ice for 10 minutes. To 30 μl of the resultant solution were added 5 μl of a solution containing Compound 1 or 6 and 5 μl of a PI3-kinase β solution (5 μg/ml) successively. A 40 μM ATP solution (10 μl) containing ^32P-γ-ATP was added thereto, and a reaction was carried out at room temperature for 2 hours. The reaction was stopped by addition of 80 μl of 1N HCl, and the lipid was extracted with 300 μl of chloroform:methanol (1:1). The organic layer was washed with 80 μl of 1N HCl twice, 10 ml of a liquid scintillator (Hionic Fluor) was added thereto, and the […] was measured by a liquid scintillation counter.

[3] = system: Akt phosphorylation in human liver-derived HLF cell; test: Akt phosphorylation activity in Gβ expression inhibited HLF cell (siRNA, Western blot); format: cell-based; settings: FIG. 16
Protocol: The effect of Gβ expression inhibition by a siRNA method against the Akt phosphorylation activity of Compound 6 in a human liver-derived HLF cell was evaluated as follows.
The HLF cells were seeded in a Dulbecco MEM medium containing 10% FCS in a 24-well dish (IWAKI, Product No. 3820-024) at a ratio of 3.75×10^4 cells/well. The cells were cultured at 37° C. for 6 hours in the presence of 5% CO2 to achieve sufficient attachment, a siRNA was transfected into the cells at the concentration of 100 nM using Dharmafect 2 (Dharmacon, Product No. T-2002-02), and the resultant cells were cultured at 37° C. for 48 hours in the presence of 5% CO2. […] Each solution was subjected to an SDS polyacrylamide electrophoresis, and the phosphorylated Akt amount, the Gβ1 amount, the Gβ2 amount, and the Gβ4 amount were measured by a Western blot method using an anti-phosphorylated Akt antibody (Cell Signaling Technologies, Product No. 9271), an anti-Gβ1 antibody (SantaCruz, Product No. sc-379), an anti-Gβ2 antibody (SantaCruz, Product No. sc-380), and an anti-Gβ4 antibody (SantaCruz, Product No. sc-382). […]

T1 sequence (P42338 whole entry): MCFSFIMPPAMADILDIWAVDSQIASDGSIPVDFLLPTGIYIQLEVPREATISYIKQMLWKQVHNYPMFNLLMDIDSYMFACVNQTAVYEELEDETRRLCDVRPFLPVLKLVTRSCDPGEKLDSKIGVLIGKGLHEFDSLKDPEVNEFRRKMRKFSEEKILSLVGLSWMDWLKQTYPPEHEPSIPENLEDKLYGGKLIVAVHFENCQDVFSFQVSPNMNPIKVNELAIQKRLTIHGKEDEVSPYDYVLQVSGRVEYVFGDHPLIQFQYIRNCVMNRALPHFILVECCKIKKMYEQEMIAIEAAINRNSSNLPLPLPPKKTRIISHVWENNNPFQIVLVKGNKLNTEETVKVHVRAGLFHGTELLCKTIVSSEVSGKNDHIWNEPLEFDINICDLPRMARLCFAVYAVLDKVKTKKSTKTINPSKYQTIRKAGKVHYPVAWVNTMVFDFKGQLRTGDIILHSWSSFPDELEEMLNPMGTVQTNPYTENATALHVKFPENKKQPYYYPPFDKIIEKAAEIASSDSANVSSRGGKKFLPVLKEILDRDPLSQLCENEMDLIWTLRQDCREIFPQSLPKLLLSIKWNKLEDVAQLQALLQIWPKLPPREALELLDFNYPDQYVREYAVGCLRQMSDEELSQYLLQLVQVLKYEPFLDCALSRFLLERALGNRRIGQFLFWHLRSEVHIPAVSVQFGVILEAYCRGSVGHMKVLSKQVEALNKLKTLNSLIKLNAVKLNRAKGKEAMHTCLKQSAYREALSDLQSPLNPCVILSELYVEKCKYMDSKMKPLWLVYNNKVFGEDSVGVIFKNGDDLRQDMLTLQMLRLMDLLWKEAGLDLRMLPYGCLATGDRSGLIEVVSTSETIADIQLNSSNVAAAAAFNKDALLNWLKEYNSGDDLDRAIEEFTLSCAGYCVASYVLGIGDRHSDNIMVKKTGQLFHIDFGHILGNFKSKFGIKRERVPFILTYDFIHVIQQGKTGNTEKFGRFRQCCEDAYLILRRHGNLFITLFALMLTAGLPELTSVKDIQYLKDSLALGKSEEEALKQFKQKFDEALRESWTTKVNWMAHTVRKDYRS
T1 sequence (P27986 whole entry partner): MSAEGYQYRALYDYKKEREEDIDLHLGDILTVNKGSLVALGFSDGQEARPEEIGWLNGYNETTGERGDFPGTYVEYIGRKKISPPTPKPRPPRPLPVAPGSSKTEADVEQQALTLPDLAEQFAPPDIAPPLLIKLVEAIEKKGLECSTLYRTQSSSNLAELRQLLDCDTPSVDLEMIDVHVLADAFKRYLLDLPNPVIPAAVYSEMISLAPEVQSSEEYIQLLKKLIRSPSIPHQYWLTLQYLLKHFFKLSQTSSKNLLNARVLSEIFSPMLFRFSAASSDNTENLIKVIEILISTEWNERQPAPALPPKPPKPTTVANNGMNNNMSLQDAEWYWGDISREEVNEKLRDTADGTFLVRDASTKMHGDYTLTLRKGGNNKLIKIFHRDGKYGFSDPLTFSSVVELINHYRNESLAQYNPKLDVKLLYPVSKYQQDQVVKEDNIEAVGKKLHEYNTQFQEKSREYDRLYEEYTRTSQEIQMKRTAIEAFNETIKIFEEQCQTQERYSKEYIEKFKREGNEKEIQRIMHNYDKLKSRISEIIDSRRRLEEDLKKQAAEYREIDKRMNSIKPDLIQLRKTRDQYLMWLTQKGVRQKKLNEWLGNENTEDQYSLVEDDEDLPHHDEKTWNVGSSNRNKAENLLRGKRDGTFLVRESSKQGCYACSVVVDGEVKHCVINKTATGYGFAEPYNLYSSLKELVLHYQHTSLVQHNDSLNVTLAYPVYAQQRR
T1 sequence (P62873 whole entry): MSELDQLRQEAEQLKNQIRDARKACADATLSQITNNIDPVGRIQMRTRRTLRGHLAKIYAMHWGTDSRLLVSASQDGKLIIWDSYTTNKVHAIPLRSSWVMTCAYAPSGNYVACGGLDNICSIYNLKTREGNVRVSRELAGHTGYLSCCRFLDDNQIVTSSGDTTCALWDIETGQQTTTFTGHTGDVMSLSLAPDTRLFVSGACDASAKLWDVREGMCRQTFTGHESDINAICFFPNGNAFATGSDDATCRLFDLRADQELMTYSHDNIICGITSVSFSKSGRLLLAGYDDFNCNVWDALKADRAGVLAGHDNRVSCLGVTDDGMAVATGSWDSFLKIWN
T1 sequence (P59768 with tags, fused parts or gaps partner limits assumed): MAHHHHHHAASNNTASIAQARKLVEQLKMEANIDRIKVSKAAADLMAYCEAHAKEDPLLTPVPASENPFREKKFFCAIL

| effect on PI3-kinase β activity ([1]; absence of the Gβ (Gβ1γ2-Myc), FIG. 14) | PI3-kinase activity compared with the case without compound ([2]; 0.1 μM, 10 μM) | PI3-kinase activity compared with the case without compound ([2]; 100 μM) | SMILES | effect on PI3-kinase β activity ([1]; 30 μM, presence of Gβ1γ2-Myc, FIG. 13) | effect of enhancing the enzymatic activity of the PI3-kinase β ([1]; presence of Gβ1γ2-Myc, concentration-dependent, 0.1, 1, and 10 μM, FIG. 14) | effect of enhancing the enzymatic activity of the PI3-kinase β ([1]; presence of Gβ1γ2-Myc, concentration-dependent, 100 μM and 1 mM, FIG. 14) | phosphorylated Akt amount ([3]; HLF cells with Gβ siRNA (Gβ1, Gβ2, Gβ4)) | phosphorylated Akt amount ([3]; HLF cells with negative control siRNA) |
| --- | --- | --- | --- | --- | --- | --- | --- | --- |
| no effects | clearly increased |  | O=C1NCC2=C1[C@@H](c1cccc3ccsc13)N(C(=O)CCc1ccccn1)[C@@H]1CCCC[C@H]1N2 [Compound 1] | significant activating effect only on the PI3-kinase β | significant effect of enhancing the enzymatic activity |  |  |  |
|  |  | clearly increased | O=C1NCC2=C1[C@@H](c1ccccc1)N(C(=O)CO)[C@@H]1CCCC[C@H]1N2 [Compound 6] |  |  | significant effect of enhancing the enzymatic activity | not detected at any Compound 6 concentration | increased depending on the Compound 6 concentration |
